Assay results taken from paper PMC11532403 (Signal Transduction and Targeted Therapy, 2024).

Tests used:
RET^G810S = biological target: T1, RET^G810S (Homo sapiens, UniProt P07949, G810S); test: HTRF kinEASE-TK kinase assay; conditions: ATP at Km; read-out: Biochemical IC50 RET^G810S
T1 construct: RET (residues 658-1114) was cloned into pFastBac vector containing an N-terminal Glutathione S-transferase (GST) tag; made in house; host or cells: Sf9 insect cells (baculovirus)
Experimental: (§1) RET (residues 658-1114) was cloned into pFastBac vector containing an N-terminal Glutathione S-transferase (GST) tag. Mutagenesis was performed on this vector to generate the RET^V804M single mutant: RETV804MmutF: […]a[…] and RETV804MmutR: […]t[…]; the RET^M918T single mutant: RETM918TmutF: […]c[…] and RETM918TmutR: […]g[…]; the RET^G810S single mutant: RETG810SmutF: […]tc[…] and RETG810SmutR: […]ga[…]. Recombinant baculovirus for expression of GST-RET was generated by co-transfection of Sf9 cells. Plaque-purified viruses were amplified, titrated and used to infect Sf9 cells incubated at 27 °C and 80 rpm. Cells were harvested 72 h post infection for protein purification.
(§2) Frozen cell pellets (1 liter culture/each) were thawed and resuspended in 20 ml of buffer A (50mM Tris-HCl, pH 7.5, 150mM NaCl, 0.1mM EDTA, 0.5% Triton X-100, 20% glycerol and 1* protease inhibitor [#539134-1SETCN, Merck]) and sonicated. The cell lysates were centrifuged at 20000 rpm for 40 min at 4 °C, then applied to GSH-Sepharose 4 Fast Flow (GE Healthcare) at 4 °C. After washing twice with 10 mL of buffer B (50mM Tris-HCl, pH 7.5, 150mM NaCl, 0.1 mM EDTA, 20% glycerol), the protein was eluted with elution buffer (50mM Tris-HCl, pH 7.5, 150mM NaCl, 0.1mM EDTA, 20% glycerol, 20mM Glutathione, 1 mM DTT) and concentrated using Amicon Ultra-15. Purities of proteins were 90% as determined by SDS-PAGE and Coomassie Blue stain.
(§3) Kinase activity was detected using CisBio HTRF kinEASE-TK kit. The assay was performed in 384-well white plates (#3574, Corning) in a reaction volume of 10 μL containing a final concentration of 50 mM HEPES, pH 7.5, 0.1 mM Na3VO4,0.01% BSA, 0.001% Tween-20, 5 mM MgCl2, […], 1 mM DTT, 1 μM TK-Substrate-biotin. The reaction was initiated by the addition of ATP at Km and indicated recombinant RET proteins. […] After incubation at 23 °C for 1 hour, FRET signal was measured on an EnVision reader (PerkinElmer Inc.).

RET^WT = biological target: T2, RET^WT (Homo sapiens, UniProt P07949); test: HTRF kinEASE-TK kinase assay; conditions: ATP at Km; read-out: Biochemical IC50 RET^WT
T2 construct: RET (residues 658-1114) was cloned into pFastBac vector containing an N-terminal Glutathione S-transferase (GST) tag; made in house; host or cells: Sf9 insect cells (baculovirus)
T2 sequence (P07949 658-1114): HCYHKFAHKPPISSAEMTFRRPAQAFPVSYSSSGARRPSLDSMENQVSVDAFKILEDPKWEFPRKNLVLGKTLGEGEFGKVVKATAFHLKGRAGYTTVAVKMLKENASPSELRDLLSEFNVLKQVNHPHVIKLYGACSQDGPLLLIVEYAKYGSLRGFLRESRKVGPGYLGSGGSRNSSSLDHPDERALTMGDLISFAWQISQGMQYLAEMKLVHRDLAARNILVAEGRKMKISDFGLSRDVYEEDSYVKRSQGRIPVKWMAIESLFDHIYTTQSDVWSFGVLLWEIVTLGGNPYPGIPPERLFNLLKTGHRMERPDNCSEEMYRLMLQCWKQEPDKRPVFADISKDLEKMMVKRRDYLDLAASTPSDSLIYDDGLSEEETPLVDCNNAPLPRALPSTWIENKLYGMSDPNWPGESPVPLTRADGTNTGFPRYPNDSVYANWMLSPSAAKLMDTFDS
Experimental: as §1, §2, §3

RET^M918T = biological target: T3, RET^M918T (Homo sapiens, UniProt P07949, M918T); test: HTRF kinEASE-TK kinase assay; conditions: ATP at Km; read-out: Biochemical IC50 RET^M918T
T3 construct: RET (residues 658-1114) was cloned into pFastBac vector containing an N-terminal Glutathione S-transferase (GST) tag; made in house; host or cells: Sf9 insect cells (baculovirus)
T3 sequence (P07949 658-1114 M918T): as the sequence (P07949 658-1114) above, with M261T counted along it
Experimental: as §1, §2, §3

rat bone marrow cells = test: In vivo bone marrow micronucleus test
Experimental: The bone marrow cell micronucleus test was positive in male rats at ≥100 mg/kg/day and in female rats at ≥300 mg/kg/day.

central nervous system = test: Central nervous system safety pharmacology; type: in vivo, SD rats; conditions: single oral, males 15-40, females 30-80 mg/kg
Experimental: All rats were evaluated for cage-side observation, detailed clinical observation, body weight and neurofunctional behavioural indices including in-cage observation, restraint observation, field observation, stimulus reflex observation and body temperature.

[1] = system: HEK293T-KIF5B-RET V804M cells; test: Proliferation assay (CellTiter-Glo); type: cell-based; conditions: Homo sapiens, read-out: Cellular Viability IC50
Experimental: (§4) The cell lines HEK293T, Baf3, TT cell and NIH-3T3 were obtained from the Cell Resource Center, Peking Union Medical College (PCRC). HEK293T and NIH-3T3 were maintained in DMEM high glucose medium (#C3113-0500, Vivacell) supplemented with 10 % FBS (#10500064, Gibco) and 1 % Penicillin-Streptomycin (#15140122, Gibco). The murine Pro‐B cell line Baf3 was cultured in RPMI 1640 medium (#C3010, Vivacell) supplemented with 10 % FBS, 1 % Penicillin-Streptomycin and 1 ng/mL recombinant murine interleukin-3 (#213-13, PeproTech). All stably transformed BaF3 cells were cultured in RPMI 1640 without IL‐3. The TT MTC cell was grown in Ham's F-12K medium (#21127022, Gibco) supplemented with 10 % FBS and 1 % Penicillin-Streptomycin. Cells were cultured at 37 °C under 5 % CO2 and high humidity conditions.
(§5) KIF5B-RET, CCDC6-RET and mutations were cloned into pCDHL vector and were verified by sequencing. Reah RET expression vectors were separately co‐transfected with psPAX2 and pMD2.G packaging plasmids into 60-70% confluent HEK 293T cells maintained in 2 mL of culture medium in six‐well plates using Polyethyleneimine (PEI) transfection grade. Virus containing media was harvested after 48 h and filtered with 0.45 μm membrane and stored at -80 °C prior to infection. For infection of Ba/F3 cells, 1 mL of viral supernatant and 8 μg/mL polybrene were added to 5 million cells per well in six‐well plates. Infected cells were selected with the addition of 1 μg/mL puromycin for 2 weeks in RPMI-1640/ 10% FBS/ 1 ng/mL IL-3 medium. Subsquently, puromycin-resistant cells were cultured in IL-3-free medium for 1 week and RET fusion proteins were confirmed by immunoblot analysis.
(§6) Cell viability was assessed by luminescence using CellTiter-Glo 2.0 assay (Promega). IC50 curve fitting was performed using GraphPad Prism 9.0.

[2] = system: HEK293T-KIF5B-RET M918T cells; test: Proliferation assay (CellTiter-Glo); type: cell-based; conditions: Homo sapiens, read-out: Cellular Viability IC50
Experimental: as §4, §5, §6

[3] = system: HEK293T-KIF5B-RET WT cells; test: Proliferation assay (CellTiter-Glo); type: cell-based; conditions: Homo sapiens, read-out: Cellular Viability IC50
Experimental: as §4, §5, §6

T1 sequence (P07949 658-1114 G810S): as the sequence (P07949 658-1114) above, with G153S counted along it

`COc1ccc(CN2C3CC2CN(c2ccc(-c4cc(N5CC(C)(O)C5)cn5ncc(C#N)c45)cn2)C3)cn1` [SY-5007, 6-(3-hydroxy-3-methylazetidin-1-yl)-4-(6-(6-((6-methoxypyridin-3-yl)methyl)-3,6-diazabicyclo[3.1.1]heptan-3-yl)pyridin-3-yl)pyrazolo[1,5-a]pyridine-3-carbonitrile] was tested, and the IC50 (RET^G810S) was 2.07 nM, the IC50 (RET^WT) was 0.339 nM and the IC50 (RET^M918T) was 0.84 nM. The “Dose at which micronucleus test positive” value (rat bone marrow cells; female rats) was ≥ 300 mg/kg/day, the “Dose at which micronucleus test positive” value (rat bone marrow cells; male rats) was ≥ 100 mg/kg/day and the CNS effects (central nervous system) was “did not affect any of the assessed neurofunctional-behavioural parameters”. For the same compound, the IC50 [1] was 99 nM, the IC50 [2] was 57 nM and the IC50 [3] was 54.4 nM.
